“Also recorded” adds a separate entry of the source.
Experiments:
[1] = system: human peripheral blood mononuclear cells (PBMCs); test: Multiplexed immunoassays for human cytokines in PBMCs; assay type: cell-based
Experimental: Example 5: High-throughput screens in porcine blood: Curated compound collections were obtained from the Institute for Therapeutics Discovery & Development at the University of Minnesota. Compound transfers from source (80 nL of 10 mM stocks) to assay plates were performed using an Echo 550 acoustic liquid handler (Labcyte, Sunnyvale, Calif.). For most libraries, a target final concentration of 10 μM of compound (in a final volume of 80 μL for the assay described below) was achieved. Compound plates were hermetically sealed and stored at −80° C. until used. Fresh, heparin-anticoagulated porcine blood from healthy animals were obtained under USDA supervision from Midwest Research Swine, LLC (Glencoe, Minn.). 80 μL of hematocrit-enriched porcine blood (low-speed centrifugation, followed by resuspension in DMEM supplemented with 10% fetal bovine serum) was added to compound plates and incubated for 15 h. The following day, the plates were briefly centrifuged (100 g, 10 min), and supernatants were transferred using an automated ViaFlow 384 transfer device (Integra Biosciences Corp., Hudson, N.H.) to assay plates containing of 10^6 cells/mL of each of the following NF-κB/secreted alkaline phosphatase reporter cells suspended in HEK-Blue Detection Media: human IFN-α/β, human IFN-γ, human TNF-α/IL-1β (InvivoGen, San Diego, Calif.). NF-κB translocation was assayed spectrophotometrically using an alkaline phosphatase-specific chromogen (present in HEK-detection medium as supplied by InvivoGen) at 620 nm using a SpectraMax M4 multimode microplate reader (Molecular Devices, Sunnyvale, Calif.). Z′ factors were computed for each TLR/NOD-specific signals. Hits were defined as signals >4σ (in-plate standard deviations for test compounds above negative control means), were deconvoluted in full dose-response assays in human TLR-2/-3/-4/-5/-7/-8/-9 and NOD-1/NOD-2-specific reporter cells in liquid handler-assisted assay formats as described previously. Example 6: Murine knockout cell-lines: The following reagents were obtained through BEI Resources, NIAID, NIH: the microglial cell line derived from MAL/MyD88 double knockout Mice (NR-9904), and the macrophage cell line derived from TRIF/TRAM knockout mice (NR-9568). Example 7: Human NOD1/2-specific reporter gene assays (NF-κB induction), and TLR-2/-3/-4/-5/-7/-8/-9/STING/ISG counter-screens: The induction of NF-κB was quantified using human TLR-2/-3/-4/-5/-7/-8/-9/NOD-1/NOD-2/STING/ISG-specific, rapid-throughput, liquid handler-assisted reporter gene assays as previously described by us (Wu, W. et al. J. Med. Chem. 2010, 53, 3198-3213; Shukla, N. M. et al. J. Med. Chem. 2010, 53, 4450-4465; Agnihotri, G. et al. J. Med. Chem. 2011, 54, 1490-1510 and Ukani, R. et al. Bioorg. Med. Chem. Lett. 2012, 22, 293-295). […]

human whole blood = test: Cytokine/chemokine induction in human whole blood; assay type: cell-based

SMILES | induction of chemokines and cytokines [1] | induction of cytokines and chemokines (human whole blood)
CCCCCCc1nc2ccccc2n1-c1csc(C(N)=O)c1 [Compound 7f, 4-(2-Hexyl-1H-benzo[d]imidazol-1-yl)thiophene-2-carboxamide] | None of the small molecules (including 1, as well as the optimized, equipotent analogues 7e and 7f) showed any activity; also recorded: essentially identical to that of 7e | None of the small molecules (including 1, as well as the optimized, equipotent analogues 7e and 7f) showed any activity
CCCCCc1nc2ccccc2n1-c1csc(C(N)=O)c1 [Compound 7e, 4-(2-Pentyl-1H-benzo[d]imidazol-1-yl)thiophene-2-carboxamide] | None of the small molecules (including 1, as well as the optimized, equipotent analogues 7e and 7f) showed any activity; also recorded: absence of induction of chemokines and cytokines | None of the small molecules (including 1, as well as the optimized, equipotent analogues 7e and 7f) showed any activity

Source: patent US11465998B2, “Therapeutic compounds and methods of use thereof” (Regents of the University of Minnesota, priority 2019, dated 2022)
